Values after ≈ are worked out from the molar mass of the structure shown. Where two headings read alike, the source gives them in different places.
Tests used:
[1] = system: Pseudomonas aerugimosa (clinically collected); assay: minimum growth inhibition concentration, agar dilution; format: cell-based; settings: Mueller-Hinton agar, digluconate
Procedure: (§1) Germicidal activity of the compound prepared in Example 1 (Compound I) was evaluated by the minimum growth inhibition concentration method (based on the standard method stipulated by Japan Society of Chemotherapy) and the phenol coefficient method.
(§2) A portion of the digluconate salt of the compound of Example 1 was dissolved in water and the solution was heated to dryness on a water bath. The dried salt was dissolved in acetic acid (potentiometric titration grade) and the concentration thereof was determined by potentiometric titration using a perchloric acid solution. The gluconate acid salt solution, whose concentration was thus determined, was diluted to predetermined concentrations with sterilized water. Each 1 ml of the solution of each concentration was placed in a Petri dish, 9 ml of Mueller-Hinton agar (supplied by Difco) was added thereto and well mixed. Thus sensitivity test media were prepared. The concentrations of the compound were 200 μg/ml and 2^n times wherein (n=-8 to 2). Separately, microorganism strains indicated in Table 1 were subcultured in propagation media (using Mueller-Hinton broth supplied by Difco) at 37° C. for 24 hours. The microorganism concentration was adjusted to 10^6 /ml. The thus obtained cultures were respectively inoculated on a series of sensitivity measuring culture media using an inoculation rod. […] The results are shown in Table 1 together with the result on chlorhexidine as a control.
(§3) Disinfecting effect of the above-prepared compounds was tested by measurement of minimum growth inhibition concentration and by the test for immediate effect in the same manner as in Example 3.

[2] = system: Flavobacterium meningosepticum RIMD 0614002; assay: as above; format: cell-based; settings: Elizabethkingia meningoseptica, RIMD0614002; Mueller-Hinton agar; digluconate
Procedure: as §1, §2, §3

[3] = system: Pseudomonas cepacia (collected Chiba Univ.); assay: as above; format: cell-based; settings: Burkholderia cepacia, Mueller-Hinton agar, digluconate
Procedure: as §1, §2, §3

[4] = system: Staphylococcus epidermis IID 866; assay: as above; format: cell-based; settings: IID866, Mueller-Hinton agar, digluconate, IID 866, read-out: MIC
Procedure: as §1, §2, §3

[5] = system: Alcaligenes faecalis IPO 13111; assay: as above; format: cell-based; settings: IPO13111, Mueller-Hinton agar, digluconate
Procedure: as §1, §2, §3

Escherichia coli IID 861 [6] = assay: as above; format: cell-based; settings: IID861, Mueller-Hinton agar, digluconate, IID 861, read-out: MIC
Procedure: as §1, §2, §3

[7] = system: Escherichia coli NIHJ JC-2; assay: as above; format: cell-based; settings: NIHJJC2, Mueller-Hinton agar, digluconate, NIHJ JC-2, read-out: MIC
Procedure: as §1, §2, §3

Proteus vulgaris IID 874 = assay: as above; format: cell-based; settings: IID874, Mueller-Hinton agar, digluconate
Procedure: as §1, §2, §3

[8] = system: Klebsiella pneumoniae IID 865; assay: as above; format: cell-based; settings: IID865, Mueller-Hinton agar, digluconate, read-out: MIC
Procedure: as §1, §2, §3

[9] = system: Achromobacter xylosoxidans RIMD 0101001; assay: as above; format: cell-based; settings: RIMD0101001, Mueller-Hinton agar, digluconate
Procedure: as §1, §2, §3

dental plaque = settings: Warner et al, 1973; cited from earlier work
Escherichia coli IID 861 [10] = assay: test for immediate effect (phenol coefficient method); format: cell-based; settings: of three runs, conc. 0.001%, 20° C.
Procedure: Immediate effect of this compound was evaluated in accordance with the phenol coefficient method described in "Directions for Hygienic Tests" compiled by the Ministry of Health and Welfare of Japan. The method is as follows. (1) Culture medium Each 10 ml of the bouillon described below was taken into test tubes and they were sterilized with high pressure steam at 120° C. for 20 minutes. (2) Test method Diluted solutions of a series of concentrations of the sample compound were prepared for each of microorganisms listed in Table 2. Each 10 ml of the solutions was put into an appraisal test tube and the test tubes were placed in a thermostat bath kept at 20° C. Each microorganism was subcultured in the above described bouillon medium for testing disinfectants for three generations (37° C. for 48 hours). Each 1 ml of each culture was placed in each of the above-described series of appraisal test tubes and well mixed. After 2.5, 5, 10 and 15 minutes, 0.1 ml of the content of each appraisal test tube was taken and inoculated onto each portion of the bouillon medium for testing disinfectants. […] Each test was carried out three times. Immediate effect of disinfectants was compared by number of test runs in which microorganism growth was observed. […]

[11] = system: Staphylococcus aureus (clin'ly col'ted MRSA); assay: minimum growth inhibition concentration, agar dilution (first MRSA line); format: cell-based; settings: Mueller-Hinton agar, digluconate, clinically collected MRSA, first line, read-out: MIC
Procedure: as §1, §2, §3

Escherichia coli IID 951 = assay: minimum growth inhibition concentration, agar dilution; format: cell-based; settings: IID951, Mueller-Hinton agar, IID 951, read-out: MIC
Procedure: as §1, §2
(§4) Compounds of formula I, wherein the trifluoromethyl group is located at the p-position and n is 2, 3, 5, 8 and 11, were prepared starting from ethylene diamine dichloride, 1,3-propane diamine dichloride, 1,5-pentane diamine dichloride, 1,8-octane diamine dichloride or 1,11-undecane diamine dichloride, sodium dicyanamide and 4-trifluoromethyl aniline hydrochloride in accordance with the procedures as described above and minimum growth inhibition concentration (MIC) was determined in the same manner as above.
as §3
(§5) Compounds of formula I, wherein the trifluoromethyl group is located at the m-position and n is 2, 3, 5 and 8, 11 were prepared starting from ethylene diamine dihydrochloride, 1,3-propane diamine dihydrochloride, 1,5-pentane diamine dihydrochloride, 1,8-octane diamine dihydrochloride or 1,11-undecane diamine dihydrochloride, sodium dicyanamide and 3-trifluoromethylaniline hydrochloride in accordance with the procedures of Example 4 and germicidal activity thereof were determined in the same manner.

[12] = system: Serratia marcescens IID 602; assay: as above; format: cell-based; settings: IID602, Mueller-Hinton agar, IID 602, read-out: MIC
Procedure: as §1, §2, §4, §3, §5

[13] = system: Pseudomonas aeruginosa IID 1042; assay: as above; format: cell-based
Procedure: as §1, §2, §4, §3, §5

[14] = system: Staphylococcus aureus FDA 209-P; assay: as above; format: cell-based; settings: FDA209, Mueller-Hinton agar
Procedure: as §1, §2, §4, §3, §5

[15] = system: Staphylococcus aureus (clin'ly col'ted MRSA); assay: minimum growth inhibition concentration, agar dilution (second MRSA line); format: cell-based; settings: Mueller-Hinton agar, digluconate, clinically collected MRSA
Procedure: as §1, §2, §3

[16] = Pseudomonas aeruginosa, IID1042, Mueller-Hinton agar, read-out: MIC

| SMILES | MIC (Escherichia coli IID 951) | MIC [12] | MIC [13, 16] | MIC [14] | also measured |
| --- | --- | --- | --- | --- | --- |
| N=C(NCCCCCCNC(=N)NC(=N)Nc1cccc(C(F)(F)F)c1)NC(=N)Nc1cccc(C(F)(F)F)c1 [Ex. 5, 1,6-bis(N^5-m-trifluoromethylphenyl-N^1-biguanido)-hexane] | 1.56 µg/mL (≈ 2.72 µM) | 6.25 µg/mL (≈ 10.9 µM) | 25 µg/mL (≈ 43.7 µM) | 0.78 µg/mL (≈ 1.36 µM) | MIC [1]: 25 µg/mL (≈ 43.7 µM); MIC [2]: 200 µg/mL (≈ 349 µM); MIC [3]: 50 µg/mL (≈ 87.3 µM); MIC [4]: 1.56 µg/mL (≈ 2.72 µM); MIC [5]: 6.25 µg/mL (≈ 10.9 µM); MIC (Escherichia coli IID 861 [6]): 1.56 µg/mL (≈ 2.72 µM); MIC [7]: 1.56 µg/mL (≈ 2.72 µM); MIC (Proteus vulgaris IID 874): 12.5 µg/mL (≈ 21.8 µM); MIC [8]: 1.56 µg/mL (≈ 2.72 µM); MIC [9]: 25 µg/mL (≈ 43.7 µM); antiplaque activity (dental plaque): superior antiplaque activity at lower concentrations; number of test runs in which microorganism growth was observed (Escherichia coli IID 861 [10]; contact time 2.5 min): 2; number of test runs in which microorganism growth was observed (Escherichia coli IID 861 [10]; contact time 5.0 min): 1; number of test runs in which microorganism growth was observed (Escherichia coli IID 861 [10]; contact time 10.0 min): 0; number of test runs in which microorganism growth was observed (Escherichia coli IID 861 [10]; contact time 15.0 min): 0; MIC [11]: 3.13 µg/mL (≈ 5.47 µM); MIC ([13]; Mueller-Hinton agar, listed as n = 6 (m-position)): 25.0 µg/mL (≈ 43.7 µM); MIC [15]: 1.56 µg/mL (≈ 2.72 µM) |
| N=C(NCCCCCCNC(=N)NC(=N)NC12CC3CC(CC(C3)C1)C2)NC(=N)NC12CC3CC(CC(C3)C1)C2 [bis-1-adamanthyl-substituted derivatives] | – | – | – | – | antiplaque activity (dental plaque): at the same level as chlorhexidin or better |
| N=C(NCCCCCCNC(=N)NC(=N)NC1CCCCC1)NC(=N)NC1CCCCC1 [bis-cyclohexyl-substituted] | – | – | – | – | antiplaque activity (dental plaque): at the same level as chlorhexidin or better |
| N=C(NCCCCCCNC(=N)NC(=N)Nc1ccccc1)NC(=N)Nc1ccccc1 [bis-phenyl-substituted derivative] | – | – | – | – | antiplaque activity (dental plaque): no antiplaque activity |
| N=C(NCCNC(=N)NC(=N)Nc1cccc(C(F)(F)F)c1)NC(=N)Nc1cccc(C(F)(F)F)c1 [n = 2 (m-position)] | 12.5 µg/mL (≈ 24.2 µM) | 50 µg/mL (≈ 96.8 µM) | 200 µg/mL (≈ 387 µM) | 12.5 µg/mL (≈ 24.2 µM) | – |
| N=C(NCCNC(=N)NC(=N)Nc1ccc(C(F)(F)F)cc1)NC(=N)Nc1ccc(C(F)(F)F)cc1 [n = 2 (p-position)] | 12.5 µg/mL (≈ 24.2 µM) | 50 µg/mL (≈ 96.8 µM) | 200 µg/mL (≈ 387 µM) | 25 µg/mL (≈ 48.4 µM) | – |

Now from value to compound, other results behind:

| MIC (Escherichia coli IID 951) | MIC [12] | MIC [13, 16] | MIC [14] | SMILES | also measured |
| --- | --- | --- | --- | --- | --- |
| 3.13 µg/mL (≈ 5.9 µM) | 12.5 µg/mL (≈ 23.6 µM) | 50 µg/mL (≈ 94.3 µM) | 3.13 µg/mL (≈ 5.9 µM) | N=C(NCCCNC(=N)NC(=N)Nc1cccc(C(F)(F)F)c1)NC(=N)Nc1cccc(C(F)(F)F)c1 [n = 3 (m-position)] | – |
| 1.56 µg/mL (≈ 2.94 µM) | 6.25 µg/mL (≈ 11.8 µM) | 50 µg/mL (≈ 94.3 µM) | 0.78 µg/mL (≈ 1.47 µM) | N=C(NCCCNC(=N)NC(=N)Nc1ccc(C(F)(F)F)cc1)NC(=N)Nc1ccc(C(F)(F)F)cc1 [n = 3 (p-position)] | – |
| 3.13 µg/mL (≈ 5.6 µM) | 6.25 µg/mL (≈ 11.2 µM) | 12.5 µg/mL (≈ 22.4 µM) | 0.78 µg/mL (≈ 1.4 µM) | N=C(NCCCCCNC(=N)NC(=N)Nc1cccc(C(F)(F)F)c1)NC(=N)Nc1cccc(C(F)(F)F)c1 [n = 5 (m-position)] | – |
| 3.13 µg/mL (≈ 5.6 µM) | 6.25 µg/mL (≈ 11.2 µM) | 12.5 µg/mL (≈ 22.4 µM) | 0.78 µg/mL (≈ 1.4 µM) | N=C(NCCCCCNC(=N)NC(=N)Nc1ccc(C(F)(F)F)cc1)NC(=N)Nc1ccc(C(F)(F)F)cc1 [n = 5 (p-position)] | – |
| 1.56 µg/mL (≈ 2.6 µM) | 6.25 µg/mL (≈ 10.4 µM) | 25 µg/mL (≈ 41.6 µM) | 1.56 µg/mL (≈ 2.6 µM) | N=C(NCCCCCCCCNC(=N)NC(=N)Nc1cccc(C(F)(F)F)c1)NC(=N)Nc1cccc(C(F)(F)F)c1 [n = 8 (m-position)] | – |
| 1.56 µg/mL (≈ 2.6 µM) | 6.25 µg/mL (≈ 10.4 µM) | 25 µg/mL (≈ 41.6 µM) | 1.56 µg/mL (≈ 2.6 µM) | N=C(NCCCCCCCCNC(=N)NC(=N)Nc1ccc(C(F)(F)F)cc1)NC(=N)Nc1ccc(C(F)(F)F)cc1 [n = 8 (p-position)] | – |
| 25 µg/mL (≈ 38.9 µM) | 100 µg/mL (≈ 156 µM) | 400 µg/mL (≈ 622 µM) | 12.5 µg/mL (≈ 19.4 µM) | N=C(NCCCCCCCCCCCNC(=N)NC(=N)Nc1cccc(C(F)(F)F)c1)NC(=N)Nc1cccc(C(F)(F)F)c1 [n = 11 (m-position)] | – |
| 50 µg/mL (≈ 77.8 µM) | 100 µg/mL (≈ 156 µM) | 400 µg/mL (≈ 622 µM) | 12.5 µg/mL (≈ 19.4 µM) | N=C(NCCCCCCCCCCCNC(=N)NC(=N)Nc1ccc(C(F)(F)F)cc1)NC(=N)Nc1ccc(C(F)(F)F)cc1 [n = 11 (p-position)] | – |

Reference: patent US5478864A, “Method for disinfection using a 1,n-bis(N^5 -trifluoromethyl-phenyl-N^1 -biguanido)-alkane” (Mitsubishi Materials Corp., priority 1991, dated 1995)
